Laboratory results published in patent publication US6350913B1, “3-alkoxybenzylamine derivatives and their use as medicines for treating schizophrenia” (Pierre Fabre Medicament, priority 1998, dated 2002).
Structures can show the parent of a compound that is named as a salt.

What was measured:
[1] = system: behavioral patterns induced by methylphenidate; experiment: Inhibition of behavioral patterns induced by methylphenidate (in vivo antidopaminergic activity); conditions: Rattus norvegicus, ip, read-out: Normalization ED50
[2] = Cataleptogenic power (propensity to induce extrapyramidal side effects); conditions: rat, in vivo, ip; rats, i.p. administration; read-out: Catalepsy ED50
D2 receptors = D2 receptors (Homo sapiens, UniProt P14416); experiment: Affinity for D2-type receptors by displacement of (3H) YM-09151-2; assay type: binding; conditions: mean of at least 3 experiments, read-out: D2 pKi (converted)
Experimental: 1- Measurement of the affinity of the compounds of the invention for the D2 receptors. The affinity of the compounds of the invention for the D2-type receptors was determined by measuring the displacement of (^3H) YM-09151-2 (NET-1004 70-87 Ci/mmol), according to the method described in Naunyn-Schimiedeberg's Arch. Pharmacol. Methods, 1985, 329, 333. The pKi values (-log Ki) are given in the form of a mean±SEM of at least 3 experiments.

D2 receptors, sequence (P14416 whole entry): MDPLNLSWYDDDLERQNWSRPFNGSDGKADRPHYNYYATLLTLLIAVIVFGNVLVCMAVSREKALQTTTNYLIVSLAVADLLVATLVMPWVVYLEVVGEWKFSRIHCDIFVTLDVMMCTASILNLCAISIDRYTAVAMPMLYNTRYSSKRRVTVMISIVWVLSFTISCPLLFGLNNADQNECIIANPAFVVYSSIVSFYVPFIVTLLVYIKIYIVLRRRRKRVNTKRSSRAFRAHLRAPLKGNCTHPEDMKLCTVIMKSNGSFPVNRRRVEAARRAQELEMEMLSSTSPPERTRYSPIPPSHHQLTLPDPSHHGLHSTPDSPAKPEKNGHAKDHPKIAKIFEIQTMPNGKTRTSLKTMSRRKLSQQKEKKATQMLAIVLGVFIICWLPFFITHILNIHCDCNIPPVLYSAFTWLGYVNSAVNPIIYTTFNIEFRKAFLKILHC

SMILES	melting point [°C]	ED50 [1] [mg/kg]	ED50 [2] [mg/kg]	Ki (D2 receptors) [nM]
CC(C)Oc1ccccc1OCCNCc1cc(OC2CCCC2)ccc1F (as salt: oxalate) [Compound 1.12]	159	–	–	–
CC(C)Oc1ccccc1OCCNCc1cccc(OC2CC3C=CC2C3)c1 (stereo not drawn) [Compound 1.4]	–	5	> 40	2.75
CC(C)Oc1ccccc1OCCNCc1cccc(OC2CC3C=CC2C3)c1 (stereo not drawn) (as salt: oxalate) [Compound 1.4]	177	–	–	–
Cc1nc2n(c(=O)c1CCN1CCC(c3noc4cc(F)ccc34)CC1)CCCC2 [Risperidone, reference compound]	–	2.9	–	–
CC(C)Oc1ccccc1OCCNCc1cc(OC2CCCC2)ccc1F [Compound 1.12]	–	1.25	> 40	0.741
